This is an account of results in BindingDB's records for doi:10.1073/pnas.0710981105 (Merck Research Laboratories, 2008).

The test has as its target T1, Bile acid receptor (Homo sapiens, UniProt Q96RI1).
T1 sequence (Q96RI1 whole entry): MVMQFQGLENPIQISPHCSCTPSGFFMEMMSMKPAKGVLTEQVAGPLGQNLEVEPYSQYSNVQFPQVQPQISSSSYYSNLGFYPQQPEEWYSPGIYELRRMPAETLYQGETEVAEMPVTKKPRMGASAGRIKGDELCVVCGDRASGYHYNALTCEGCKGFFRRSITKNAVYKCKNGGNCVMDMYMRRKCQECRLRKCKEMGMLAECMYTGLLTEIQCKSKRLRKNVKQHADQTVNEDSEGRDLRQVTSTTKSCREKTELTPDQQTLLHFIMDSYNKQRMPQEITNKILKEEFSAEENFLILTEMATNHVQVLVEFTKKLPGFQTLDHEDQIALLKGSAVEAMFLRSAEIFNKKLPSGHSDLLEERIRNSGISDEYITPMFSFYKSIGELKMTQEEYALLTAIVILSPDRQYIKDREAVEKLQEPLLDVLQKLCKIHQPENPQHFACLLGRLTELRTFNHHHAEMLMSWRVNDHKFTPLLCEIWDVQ
Kind of test: HTRF Coactivator Recruitment Assay. Conditions: pH 7; 4 °C. The method, then: To each well of a 96-well assay plate, assay buffer was added containing purified GST-FXR, Eu-labeled anti-GST antibody (Perkin-Elmer), streptavidin-XL665 (Packard Instruments), biotin-tagged SRC-1 fragment. The binding reaction was initiated by the addition of compound.
For orientation: Time-resolved FRET reads energy transfer from a long-lived donor to a nearby acceptor.

Molecules are shown by their SMILES. pEC50: −log10 of the molar value.

As for `C[C@]12CCC(C(=O)O)=CC1=CCC1C2CC[C@@]2(C)C1CC[C@@H]2C(=O)c1ccc(O)cc1` (some centres not stated) [MFA-1], the pEC50 (commonly the EC50 on a negative log10 scale, so that one unit is a factor of ten) was 7.77. The figure for `C[C@]12CCC(C(=O)O)=CC1=CCC1C2CC[C@@]2(C)C1CC[C@@H]2C(=O)c1ccccc1` (some centres not stated) [MFA-2] is 6.29.
